PubChem BioAssay AID248 (DTP/NCI, 2004)
Values joined by “and” are separate entries in the source; they are usually repeats but may differ in a detail not shown here. Equal entries are not always repeated. Inconclusive results and toxic doses are left out. Cut-off read from the data, not from the text of the source: active = T/C of 150% or more; inactive = T/C below 125%.

System: L1210 leukemia ip in BDF1 mice, survival T/C
Assay: NCI In Vivo Anticancer Drug Screen. Data for tumor model L1210 Leukemia (intraperitoneal) in B6D2F1 (BDF1) mice
Details: endpoint: mean survival time, higher = longer survival
Method in brief: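 Tumor was transplanted into mice, which were then dosed with test compound or vehicle alone. Survival was recorded for each group, and the treated figure was expressed relative to the control figure.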

[1] = dose: 100.0 mg/kg/injection, schedule: Q01DX009 (ip), vehicle: Klucel (hydroxypropylcellulose) (HPC)
[2] = dose: 100.0 mg/kg/injection, schedule: Q04DX003 (ip), vehicle: Klucel (hydroxypropylcellulose) (HPC)
[3] = dose: 200.0 mg/kg/injection, schedule: Q01DX009 (ip), vehicle: Klucel (hydroxypropylcellulose) (HPC)
[4] = dose: 200.0 mg/kg/injection, schedule: Q04DX003 (ip), vehicle: Klucel (hydroxypropylcellulose) (HPC)
[5] = dose: 400.0 mg/kg/injection, schedule: Q04DX003 (ip), vehicle: Klucel (hydroxypropylcellulose) (HPC)
[6] = dose: 100.0 mg/kg/injection, schedule: Q01DX001 (ip), vehicle: Klucel (hydroxypropylcellulose) (HPC)
[7] = dose: 400.0 mg/kg/injection, schedule: Q01DX001 (ip), vehicle: Klucel (hydroxypropylcellulose) (HPC)
[8] = dose: 100.0 mg/kg/injection, schedule: Q01DX009 (ip), vehicle: saline
[9] = dose: 100.0 mg/kg/injection, schedule: Q04DX003 (ip), vehicle: saline
[10] = dose: 200.0 mg/kg/injection, schedule: Q01DX009 (ip), vehicle: saline
[11] = dose: 200.0 mg/kg/injection, schedule: Q04DX003 (ip), vehicle: saline
[12] = dose: 400.0 mg/kg/injection, schedule: Q01DX009 (ip), vehicle: saline
[13] = dose: 400.0 mg/kg/injection, schedule: Q04DX003 (ip), vehicle: saline
[14] = dose: 400.0 mg/kg/injection, schedule: Q01DX009 (ip), vehicle: Klucel (hydroxypropylcellulose) (HPC)
[15] = dose: 100.0 mg/kg/injection, schedule: Q01DX001 (ip), vehicle: saline
[16] = dose: 200.0 mg/kg/injection, schedule: Q01DX001 (ip), vehicle: saline
[17] = dose: 400.0 mg/kg/injection, schedule: Q01DX001 (ip), vehicle: saline
[18] = dose: 50.0 mg/kg/injection, schedule: Q04DX002 (ip), vehicle: Klucel (hydroxypropylcellulose) (HPC)
[19] = dose: 100.0 mg/kg/injection, schedule: Q04DX002 (ip), vehicle: Klucel (hydroxypropylcellulose) (HPC)
[20] = dose: 200.0 mg/kg/injection, schedule: Q04DX002 (ip), vehicle: Klucel (hydroxypropylcellulose) (HPC)
[21] = dose: 100.0 mg/kg/injection, schedule: Q04DX003 (ip), vehicle: saline with Tween-80
[22] = dose: 100.0 mg/kg/injection, schedule: Q01DX001 (ip), vehicle: carboxymethylcellulose (CMC)
[23] = dose: 200.0 mg/kg/injection, schedule: Q01DX001 (ip), vehicle: carboxymethylcellulose (CMC)
[24] = dose: 400.0 mg/kg/injection, schedule: Q01DX001 (ip), vehicle: carboxymethylcellulose (CMC)

Measured: T/C

Cc1cccc(C)c1NC(=O)Oc1ccccc1C(N)=O
inactive: [1] 97 % of control | [2] 98 % of control | [3] 100 % of control | [4] 104 % of control | [5] 94 % of control

Nc1c(Cl)cc2c(c1Br)C(=O)c1ccccc1C2=O
inactive: [6] 117 % of control | [7] 90 % of control

CCCCOP(=O)(OCCCC)Oc1c(Cl)c(Cl)c(Cl)c(Cl)c1Cl
inactive: dose: 100.0 mg/kg/injection, schedule: Q04DX002 (sc), vehicle: olive oil, sesame oil, peanut oil 107 % of control | dose: 200.0 mg/kg/injection, schedule: Q04DX002 (sc), vehicle: olive oil, sesame oil, peanut oil 100 % of control | dose: 400.0 mg/kg/injection, schedule: Q04DX002 (sc), vehicle: olive oil, sesame oil, peanut oil 104 % of control

Cc1nccnc1SC1CCCCC1
inactive: [2] 96 % of control | [4] 96 % of control | [5] 93 % of control

CC(C)(N)COS(=O)(=O)O
inactive: [8] 106 % of control | [9] 101 % of control | [10] 96 % of control | [11] 114 % of control | [12] 105 % of control | [13] 96 % of control

Cc1cc(OC(=O)c2ccc(N)cc2)ccc1C1=NCC(C)S1 (stereo unspecified)
inactive: dose: 25.0 mg/kg/injection, schedule: Q04DX002 (ip), vehicle: DMSO 89 % of control | dose: 50.0 mg/kg/injection, schedule: Q04DX002 (ip), vehicle: DMSO 92 % of control | dose: 100.0 mg/kg/injection, schedule: Q04DX002 (ip), vehicle: DMSO 100 % of control

CC=C(C)c1ccccc1 (mixture of isomers)
inactive: dose: 50.0 mg/kg/injection, schedule: Q01DX009 (ip), vehicle: saline with Tween-80 118 % of control | dose: 100.0 mg/kg/injection, schedule: Q01DX009 (ip), vehicle: saline with Tween-80 123 % of control | dose: 200.0 mg/kg/injection, schedule: Q01DX009 (ip), vehicle: saline with Tween-80 94 % of control

O=c1[nH]c2cscc2c(=O)n1OS(=O)(=O)c1ccccc1
inactive: [1] 93 % of control | [3] 95 % of control | [14] 100 % of control

CC1=NN(C)C(=O)C1
inactive: dose: 50.0 mg/kg/injection, schedule: Q01DX001 (ip), vehicle: saline 103 % of control | [15] 103 % of control | [16] 103 % of control | [17] 103 % of control

O=CC1CO1 (stereo unspecified)
inactive: dose: 29.0 mg/kg/injection, schedule: Q01DX Z (ip), vehicle: steriod suspending solution 97 % of control | dose: 44.0 mg/kg/injection, schedule: Q01DX Z (ip), vehicle: steriod suspending solution 99 % of control | dose: 66.0 mg/kg/injection, schedule: Q01DX Z (ip), vehicle: steriod suspending solution 106 % of control

FC(F)(F)c1nc2ccccc2[nH]1
inactive: [18] 86 % of control | [19] 100 % of control | [20] 93 % of control

O=[N+]([O-])c1ccc(O)c(N=Cc2ccccc2)c1
inactive: [15] 97 % of control | [16] 96 % of control | [17] 100 % of control

Cc1ccc(NC2=CC(=O)C(=O)c3ccccc32)cc1
inactive: dose: 100.0 mg/kg/injection, schedule: Q01DX001 (ip), vehicle: other 103 % of control | dose: 200.0 mg/kg/injection, schedule: Q01DX001 (ip), vehicle: other 98 % of control | dose: 400.0 mg/kg/injection, schedule: Q01DX001 (ip), vehicle: other 92 % of control

COc1cccc(CCC(=O)c2ccccc2)c1
inactive: [19] 106 % of control | [20] 90 % of control | dose: 400.0 mg/kg/injection, schedule: Q04DX002 (ip), vehicle: Klucel (hydroxypropylcellulose) (HPC) 94 % of control

O=C1OCC/C1=C/CCC/C=C1\CCOC1=O
inactive: [1] 101 % of control | [2] 100 % of control | [3] 102 % of control | [4] 94 % of control | [14] 88 % of control | [5] 92 % of control

O=C(Nc1cccc(C2=NCC(O)CN2)c1)c1ccc(C(=O)Nc2cccc(C3=NCC(O)CN3)c2)c(Cl)c1 (stereo unspecified)
inactive: dose: 6.25 mg/kg/injection, schedule: Q01DX Z (ip), vehicle: water 95 % of control

O=P(Cc1ccccc1)(c1ccccc1)c1ccccc1
inactive: [2] 90 % of control | [4] 90 % of control | [5] 94 % of control

CCCP(=S)(C(C)C)C(C)C
inactive: [21] 103 % of control

O=C1c2ccccc2C(=O)c2c1ccc1c2[nH]c2ccccc21
inactive: [22] 86 % of control | [23] 91 % of control | [24] 89 % of control

CC(=O)CC(=O)OCc1ccccc1
inactive: [8] 93 % of control | [10] 92 % of control | [12] 95 % of control

C1=CC2CC3(OCCO3)C2C1 (stereo unspecified)
inactive: [21] 95 % of control | dose: 200.0 mg/kg/injection, schedule: Q04DX003 (ip), vehicle: saline with Tween-80 92 % of control | dose: 400.0 mg/kg/injection, schedule: Q04DX003 (ip), vehicle: saline with Tween-80 92 % of control

CCc1ccccc1NC(=O)N1CCCCC1C (stereo unspecified)
inactive: [1] 102 % of control | [3] 94 % of control

O=P(Cc1ccccc1)(OCCCl)Oc1ccccc1 (stereo unspecified)
inactive: [1] 102 % of control | [2] 91 % of control | [3] 98 % of control | [4] 96 % of control | [14] 96 % of control | [5] 96 % of control

CCOC(=O)C(C(=N)C#N)C(C)=O (stereo unspecified)
inactive: dose: 6.25 mg/kg/injection, schedule: Q04DX003 (ip), vehicle: saline with Tween-80 98 % of control | dose: 12.5 mg/kg/injection, schedule: Q04DX003 (ip), vehicle: saline with Tween-80 98 % of control | dose: 25.0 mg/kg/injection, schedule: Q04DX003 (ip), vehicle: saline with Tween-80 97 % of control | dose: 50.0 mg/kg/injection, schedule: Q04DX003 (ip), vehicle: saline with Tween-80 88 % of control | [21] 103 % of control

CN(CCCl)CC1C(c2ccccc2)C1c1ccccc1 (stereo unspecified)
inactive: dose: 25.0 mg/kg/injection, schedule: Q04DX002 (ip), vehicle: Klucel (hydroxypropylcellulose) (HPC) 103 % of control | [18] 111 % of control | [19] 107 % of control and 111 % of control

OCCN(CCO)CN(CO)c1nc(N(CO)CN(CCO)CCO)nc(N(CO)CN(CCO)CCO)n1
inactive: [8] 100 % of control | [9] 101 % of control | [10] 109 % of control | [11] 101 % of control | [12] 109 % of control | [13] 91 % of control

Nc1ccc2c(c1)C(O)c1cc(N)c(Br)cc1-2 (stereo unspecified)
inactive: [22] 103 % of control | [23] 110 % of control | [24] 103 % of control

COc1ccc(C(=S)N(C)c2ccccc2C)cc1
inactive: [6] 98 % of control | [2] 96 % of control | dose: 200.0 mg/kg/injection, schedule: Q01DX001 (ip), vehicle: Klucel (hydroxypropylcellulose) (HPC) 112 % of control | [4] 103 % of control | [7] 105 % of control | [5] 100 % of control

COc1ccc([N+](=O)[O-])cc1NS(=O)(=O)c1ccc(Cl)cc1
inactive: [1] 102 % of control | [3] 98 % of control | [14] 93 % of control
